Literature values in patent US20090175967A1, “METHODS FOR TREATMENT OF INTESTINAL CARCINOGENESIS WITH RICE BRAN” (priority 2008, published 2009).

System: Apc^Min mice

COc1cc(/C=C/C(=O)CC(=O)/C=C/c2ccc(O)c(OC)c2)ccc1O [curcumin]
adenoma development: compromised adenoma development
